Measurements reported in article PMC12332554, “Novel Benzofuran-3-yl-methyl and Aliphatic Azacyclics: Design, Synthesis, and In Vitro and In Silico anti-Alzheimer Disease Activity Studies” (ACS Omega, 2025).

Experiments:
AChE [1] = target: T1, AChE (Homo sapiens, UniProt P22303); assay: AChE inhibition, modified Ellman approach; format: biochemical; conditions: for inhibition at 1000 µM: 10^-3 M; for inhibition at 100 µM: 10^-4 M; for inhibition at 10 µM: 10^-5 M; for inhibition at 1 µM: 10^-6 M; for inhibition at 0.1 µM: 10^-7 M; for inhibition at 0.01 µM: 10^-8 M; for inhibition at 0.001 µM: 10^-9 M
T1 sequence (P22303 32-614): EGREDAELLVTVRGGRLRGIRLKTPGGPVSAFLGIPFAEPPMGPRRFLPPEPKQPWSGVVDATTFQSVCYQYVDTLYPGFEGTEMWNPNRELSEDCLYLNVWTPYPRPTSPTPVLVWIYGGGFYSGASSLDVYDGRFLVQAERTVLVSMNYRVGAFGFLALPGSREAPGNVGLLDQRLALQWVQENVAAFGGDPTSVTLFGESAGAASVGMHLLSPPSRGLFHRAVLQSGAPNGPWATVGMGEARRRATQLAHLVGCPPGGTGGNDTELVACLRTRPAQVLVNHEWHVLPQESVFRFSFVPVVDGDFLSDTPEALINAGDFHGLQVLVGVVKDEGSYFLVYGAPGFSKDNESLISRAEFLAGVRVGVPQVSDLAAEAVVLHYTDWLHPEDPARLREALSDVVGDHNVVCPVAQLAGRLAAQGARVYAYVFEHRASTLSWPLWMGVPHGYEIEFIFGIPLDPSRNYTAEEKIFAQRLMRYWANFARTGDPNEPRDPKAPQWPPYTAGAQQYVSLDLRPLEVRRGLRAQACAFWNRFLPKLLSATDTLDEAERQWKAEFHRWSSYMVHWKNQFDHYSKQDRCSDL
Protocol: (§1) According to the modified Ellman approach outlined in our earlier works − the AChE and BChE inhibitory activities of the obtained compounds were evaluated.

human BChE = human BChE (Homo sapiens, UniProt P06276); assay: biochemical; conditions: read-out: BChE % Inhibition;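 note: inhibition of BChE determined with an adapted Ellman method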
Chain of human BChE (P06276 29-602): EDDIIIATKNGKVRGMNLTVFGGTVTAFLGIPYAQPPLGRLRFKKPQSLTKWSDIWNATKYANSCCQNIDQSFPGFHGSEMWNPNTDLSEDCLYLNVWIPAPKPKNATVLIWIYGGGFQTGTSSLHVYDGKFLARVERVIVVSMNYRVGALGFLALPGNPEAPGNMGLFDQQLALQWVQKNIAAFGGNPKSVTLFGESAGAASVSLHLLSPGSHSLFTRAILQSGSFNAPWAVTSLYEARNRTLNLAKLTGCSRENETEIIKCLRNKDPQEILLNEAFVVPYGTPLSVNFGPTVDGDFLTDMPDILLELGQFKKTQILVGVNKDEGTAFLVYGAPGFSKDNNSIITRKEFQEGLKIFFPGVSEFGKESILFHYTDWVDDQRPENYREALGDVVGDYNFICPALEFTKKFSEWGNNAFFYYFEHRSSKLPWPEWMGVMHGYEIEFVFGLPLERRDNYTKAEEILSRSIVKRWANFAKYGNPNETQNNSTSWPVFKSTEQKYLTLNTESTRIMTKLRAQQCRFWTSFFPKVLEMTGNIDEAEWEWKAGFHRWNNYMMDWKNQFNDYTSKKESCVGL
Protocol: as §1

[2] = target: T2, Human β-Secretase (BACE-1) (Homo sapiens, UniProt P56817); assay: Human β-Secretase (BACE-1) Inhibitor Screening Assay kit (fluorometric); format: biochemical
T2 construct: purchased K720-100
T2 sequence (P56817 46-501): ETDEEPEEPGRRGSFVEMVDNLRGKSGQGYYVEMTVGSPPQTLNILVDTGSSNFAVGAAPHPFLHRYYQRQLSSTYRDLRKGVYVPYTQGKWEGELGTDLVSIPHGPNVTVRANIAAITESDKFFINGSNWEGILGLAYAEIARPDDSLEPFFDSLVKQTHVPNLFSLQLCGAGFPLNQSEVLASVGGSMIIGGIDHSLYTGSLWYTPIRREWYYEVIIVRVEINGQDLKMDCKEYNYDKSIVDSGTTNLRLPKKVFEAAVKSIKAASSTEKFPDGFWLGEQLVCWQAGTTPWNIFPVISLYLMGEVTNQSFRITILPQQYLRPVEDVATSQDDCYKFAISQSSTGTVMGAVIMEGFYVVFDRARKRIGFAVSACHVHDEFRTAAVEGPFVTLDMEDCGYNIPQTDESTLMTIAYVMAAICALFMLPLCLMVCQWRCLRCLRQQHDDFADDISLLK
Description: The experimental procedure was based on the “Human β-Secretase (BACE-1) Inhibitor Screening Assay” kit (Human β-Secretase (BACE1) Inhibitor Screening Kit (Fluorometric)-Catalog no: K720-100) protocol based on the fluorometric method as performed previously.

AChE [3] = target: T1, AChE; assay: Kinetic studies of AChE enzyme inhibition (Lineweaver–Burk, secondary plot); format: biochemical; conditions: Lineweaver–Burk plots
Protocol: Enzyme kinetics studies were conducted to determine the mechanism of inhibition of AChE using a procedure similar to that of the inhibition assay for cholinesterase enzymes. […] Linear Lineweaver–Burk graphs were used to estimate the type of inhibition of this compound. The velocity curves of the substrates were recorded in the absence and presence of compound 4m. […] In each case, the initial velocity measurements were obtained at different substrate (ATC) concentrations ranging from 600 to 18.75 μM.
For this purpose, this compound was prepared at different concentrations (IC50, 2xIC50 and IC50/2). Moreover, a substrate (ATC) was used at various concentrations (600, 300, 150, 75, 37.5, and 18.75 μM). The enzyme kinetics assay was carried out as in our previous. − Lineweaver–Burk plots were formed using Microsoft Office Excel 2013. The K i values of the compound were easily calculated from the second plot with a common intercept on the x-axis (corresponding to –K i).

O=C(c1ccccc1)c1oc2ccccc2c1CSC(=S)N1CCC(Cc2ccccc2)CC1 [4e, (2-Benzoylbenzofuran-3-yl)methyl 4-Benzylpiperidine-1-dithiocarbamate]
IC50 (AChE [1]): 0.049 ± 0.002 µM
inhibition at 1000 µM (AChE [1]): 92.6 ± 1.38%
inhibition at 100 µM (AChE [1]): 88.6 ± 1.4%
inhibition at 10 µM (AChE [1]): 80.2 ± 1.11%
inhibition at 1 µM (AChE [1]): 74.3 ± 1.5%
inhibition at 0.1 µM (AChE [1]): 61.6 ± 0.92%
inhibition at 0.01 µM (AChE [1]): 45.4 ± 0.72%
inhibition at 0.001 µM (AChE [1]): 21.5 ± 0.86%
inhibition at 100 µM (human BChE): 29 ± 0.73%
inhibition at 1000 µM (human BChE): 35.6 ± 0.88%
IC50 [2]: 0.134 ± 0.006 µM

O=C(c1ccccc1)c1oc2ccccc2c1CSC(=S)N1CCN(c2ccc(F)cc2)CC1 [4o, (2-Benzoylbenzofuran-3-yl)methyl 4-(4-Fluorophenyl)piperazine-1-dithiocarbamate]
IC50 (AChE [1]): 0.041 ± 0.002 µM
inhibition at 1000 µM (AChE [1]): 91.2 ± 1.57%
inhibition at 100 µM (AChE [1]): 83.6 ± 1.47%
inhibition at 10 µM (AChE [1]): 75 ± 1.67%
inhibition at 1 µM (AChE [1]): 65.8 ± 1.1%
inhibition at 0.1 µM (AChE [1]): 58.3 ± 1%
inhibition at 0.01 µM (AChE [1]): 48 ± 0.95%
inhibition at 0.001 µM (AChE [1]): 20.8 ± 0.74%
inhibition at 100 µM (human BChE): 30.3 ± 0.82%
inhibition at 1000 µM (human BChE): 37.5 ± 0.75%
IC50 [2]: > 10 µM
β-secretase (BACE-1) IC50 [2]: no significant inhibition

CN(C)CCCN1CCN(C(=S)SCc2c(C(=O)c3ccccc3)oc3ccccc23)CC1 [4g, (2-Benzoylbenzofuran-3-yl)methyl 4-(3-(Dimethylamino)propyl)piperazine-1-dithiocarbamate]
inhibition at 1000 µM (AChE [1]): 69 ± 0.97%
inhibition at 100 µM (AChE [1]): 39.1 ± 0.87%
inhibition at 100 µM (human BChE): 21.7 ± 0.93%
inhibition at 1000 µM (human BChE): 29.3 ± 0.89%

COc1ccc(N2CCN(C(=S)SCc3c(C(=O)c4ccccc4)oc4ccccc34)CC2)cc1 [4l, (2-Benzoylbenzofuran-3-yl)methyl 4-(4-Methoxyphenyl)piperazine-1-dithiocarbamate]
inhibition at 1000 µM (AChE [1]): 72.3 ± 1.1%
inhibition at 100 µM (AChE [1]): 43.9 ± 0.98%
inhibition at 100 µM (human BChE): 21.4 ± 0.87%
inhibition at 1000 µM (human BChE): 30.5 ± 0.87%

O=C(c1ccccc1)c1oc2ccccc2c1CSC(=S)N1CCN(CCO)CC1 [4m, (2-Benzoylbenzofuran-3-yl)methyl 4-(2-Hydroxyethyl)piperazine-1-dithiocarbamate]
IC50 (AChE [1]): 0.029 ± 0.001 µM
inhibition at 1000 µM (AChE [1]): 94.3 ± 1.64%
inhibition at 100 µM (AChE [1]): 89.4 ± 1.5%
inhibition at 10 µM (AChE [1]): 80.2 ± 1.48%
inhibition at 1 µM (AChE [1]): 75.4 ± 1.1%
inhibition at 0.1 µM (AChE [1]): 70.4 ± 1.21%
inhibition at 0.01 µM (AChE [1]): 44.7 ± 0.97%
inhibition at 0.001 µM (AChE [1]): 26.6 ± 0.72%
inhibition at 100 µM (human BChE): 31.1 ± 0.73%
inhibition at 1000 µM (human BChE): 39.1 ± 0.76%
IC50 [2]: 0.084 ± 0.003 µM
type of AChE inhibition (AChE [3]): reversible and mixed-type inhibitor

CC1CCN(C(=S)SCc2c(C(=O)c3ccccc3)oc3ccccc23)CC1 [4d, (2-Benzoylbenzofuran-3-yl)methyl 4-Methylpiperidine-1-dithiocarbamate]
inhibition at 1000 µM (AChE [1]): 63.8 ± 1.59%
inhibition at 100 µM (AChE [1]): 40.7 ± 0.97%
inhibition at 100 µM (human BChE): 24.4 ± 0.93%
inhibition at 1000 µM (human BChE): 28.3 ± 0.81%

O=C(c1ccccc1)c1oc2ccccc2c1CSC(=S)N1CCN(C(=O)c2ccco2)CC1 [4h, (2-Benzoylbenzofuran-3-yl)methyl 4-(Furan-2-carbonyl)piperazine-1-dithiocarbamate]
IC50 (AChE [1]): 0.054 ± 0.002 µM
inhibition at 1000 µM (AChE [1]): 90.7 ± 1.24%
inhibition at 100 µM (AChE [1]): 84.2 ± 1.33%
inhibition at 10 µM (AChE [1]): 80.3 ± 1.1%
inhibition at 1 µM (AChE [1]): 75.9 ± 1.32%
inhibition at 0.1 µM (AChE [1]): 60.3 ± 0.97%
inhibition at 0.01 µM (AChE [1]): 45.7 ± 0.87%
inhibition at 0.001 µM (AChE [1]): 23 ± 0.78%
inhibition at 100 µM (human BChE): 28.3 ± 0.82%
inhibition at 1000 µM (human BChE): 36.8 ± 0.76%
IC50 [2]: 0.155 ± 0.007 µM

O=C(c1ccccc1)c1oc2ccccc2c1CSC(=S)N1CCOCC1 [4f, (2-Benzoylbenzofuran-3-yl)methyl Morpholine-4-dithiocarbamate]
inhibition at 1000 µM (AChE [1]): 70.8 ± 1.12%
inhibition at 100 µM (AChE [1]): 41.3 ± 0.9%
inhibition at 100 µM (human BChE): 20.7 ± 0.86%
inhibition at 1000 µM (human BChE): 28.4 ± 0.92%

O=C(c1ccccc1)c1oc2ccccc2c1CSC(=S)N1CCN(c2ncccn2)CC1 [4i, (2-Benzoylbenzofuran-3-yl)methyl 4-(Pyrimidine-2-yl)piperazine-1-dithiocarbamate]
inhibition at 1000 µM (AChE [1]): 72.8 ± 1%
inhibition at 100 µM (AChE [1]): 43.6 ± 0.87%
inhibition at 100 µM (human BChE): 20.8 ± 0.88%
inhibition at 1000 µM (human BChE): 28.6 ± 0.82%

CC1CCCN(C(=S)SCc2c(C(=O)c3ccccc3)oc3ccccc23)C1 (stereo not drawn) [4c, (2-Benzoylbenzofuran-3-yl)methyl 3-Methylpiperidine-1-dithiocarbamate]
inhibition at 1000 µM (AChE [1]): 71.7 ± 1.1%
inhibition at 100 µM (AChE [1]): 43 ± 0.89%
inhibition at 100 µM (human BChE): 22.1 ± 0.84%
inhibition at 1000 µM (human BChE): 30.4 ± 0.9%

O=C(c1ccccc1)c1oc2ccccc2c1CSC(=S)N1CCN(c2ccc(Cl)cc2)CC1 [4n, (2-Benzoylbenzofuran-3-yl)methyl 4-(4-Chlorophenyl)piperazine-1-dithiocarbamate]
inhibition at 1000 µM (AChE [1]): 76.7 ± 1.26%
inhibition at 100 µM (AChE [1]): 46.8 ± 0.86%
inhibition at 100 µM (human BChE): 20.1 ± 0.78%
inhibition at 1000 µM (human BChE): 29.6 ± 0.86%

O=C(c1ccccc1)c1oc2ccccc2c1CSC(=S)N1CCN(c2ccc([N+](=O)[O-])cc2)CC1 [4k, (2-Benzoylbenzofuran-3-yl)methyl 4-(4-Nitrophenyl)piperazine-1-dithiocarbamate]
inhibition at 1000 µM (AChE [1]): 69 ± 1%
inhibition at 100 µM (AChE [1]): 41.6 ± 0.95%
inhibition at 100 µM (human BChE): 23.6 ± 0.83%
inhibition at 1000 µM (human BChE): 30.4 ± 0.93%

CC1CCCCN1C(=S)SCc1c(C(=O)c2ccccc2)oc2ccccc12 (stereo not drawn) [4b, (2-Benzoylbenzofuran-3-yl)methyl 2-Methylpiperidine-1-dithiocarbamate]
inhibition at 1000 µM (AChE [1]): 58.4 ± 1.9%
inhibition at 100 µM (AChE [1]): 43.4 ± 1.62%
inhibition at 100 µM (human BChE): 27.3 ± 0.79%
inhibition at 1000 µM (human BChE): 33.9 ± 0.9%

O=C(c1ccccc1)c1oc2ccccc2c1CSC(=S)N1CCCCC1 [4a, (2-Benzoylbenzofuran-3-yl)methylpiperidine-1-dithiocarbamate]
inhibition at 1000 µM (AChE [1]): 65.2 ± 1.02%
inhibition at 100 µM (AChE [1]): 40.7 ± 0.98%
inhibition at 100 µM (human BChE): 25.8 ± 0.92%
inhibition at 1000 µM (human BChE): 31.7 ± 0.89%

O=C(c1ccccc1)c1oc2ccccc2c1CSC(=S)N1CCN(c2ccccc2)CC1 [4j, (2-Benzoylbenzofuran-3-yl)methyl 4-Phenylpiperazine-1-dithiocarbamate]
inhibition at 1000 µM (AChE [1]): 75.6 ± 1.05%
inhibition at 100 µM (AChE [1]): 41 ± 0.79%
inhibition at 100 µM (human BChE): 24.9 ± 0.92%
inhibition at 1000 µM (human BChE): 31.6 ± 0.73%
